Source: US9085576B2 (AMGEN INC., priority 2013, dated 2015)
pIC50: −log10 of the molar value.

Legend:
[1] = target: Beta Secretase enzyme (BACE) (Homo sapiens (Human), UniProt P56817); assay: In vitro enzymatic BACE FRET assay; format: biochemical; conditions: read-out: BACE1 Enzyme assay IC50
Cathepsin D (Cat D) = Cathepsin D (Cat D) (Homo sapiens (Human), UniProt P07339); assay: In vitro enzymatic Cathepsin D (Cat D) FRET assay; format: biochemical; conditions: read-out: CatD IC50
BACE = BACE (Homo sapiens (Human), UniProt P56817); assay: In vitro BACE cell-based assay (Aβ40 in conditioned medium, sandwich ELISA)
BACE, sequence (P56817 46-501, species assumed): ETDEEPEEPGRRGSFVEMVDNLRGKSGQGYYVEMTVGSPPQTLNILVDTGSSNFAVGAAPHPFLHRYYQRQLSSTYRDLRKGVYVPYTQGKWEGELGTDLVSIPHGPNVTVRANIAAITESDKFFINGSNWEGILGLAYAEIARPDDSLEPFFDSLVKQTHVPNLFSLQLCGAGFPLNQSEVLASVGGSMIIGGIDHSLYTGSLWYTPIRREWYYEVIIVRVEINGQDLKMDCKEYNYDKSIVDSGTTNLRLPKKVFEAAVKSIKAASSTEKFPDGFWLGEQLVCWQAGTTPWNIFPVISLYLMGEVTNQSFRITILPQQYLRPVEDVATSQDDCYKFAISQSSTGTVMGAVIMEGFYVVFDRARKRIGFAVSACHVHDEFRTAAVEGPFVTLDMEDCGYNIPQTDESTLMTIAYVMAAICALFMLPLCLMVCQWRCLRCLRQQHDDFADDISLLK

Beta Secretase enzyme (BACE), sequence (P56817 46-501): as the sequence (P56817 46-501, species assumed) above
Cathepsin D (Cat D), sequence (P07339 65-412, species assumed): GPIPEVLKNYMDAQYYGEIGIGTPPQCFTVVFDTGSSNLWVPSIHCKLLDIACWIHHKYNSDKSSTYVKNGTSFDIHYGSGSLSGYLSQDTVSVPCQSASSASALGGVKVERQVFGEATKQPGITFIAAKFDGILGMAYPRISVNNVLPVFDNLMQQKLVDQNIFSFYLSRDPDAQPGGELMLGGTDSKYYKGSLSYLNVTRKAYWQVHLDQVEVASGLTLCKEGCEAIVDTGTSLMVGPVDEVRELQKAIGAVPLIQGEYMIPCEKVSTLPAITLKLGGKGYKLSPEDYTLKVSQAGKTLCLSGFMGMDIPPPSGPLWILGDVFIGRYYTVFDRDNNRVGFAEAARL

pIC50 [1] | pIC50 (Cathepsin D (Cat D)) | IC50 (BACE) [µM] | Structure (SMILES)
6.93 | 3.54 | 0.0696 | COc1cnc(C(=O)Nc2cc(C)c(F)c([C@@]3(C(F)F)N=C(N)O[C@@H]4C[C@@H]43)c2)c(C)c1 [Example 305, N-(3-((1R,5S,6R)-3-amino-5-(difluoromethyl)-2-oxa-4-azabicyclo[4.1.0]hept-3-en-5-yl)-4-fluoro-5-methylphenyl)-5-methoxy-3-methylpicolinamide]
6.82 | 3.31 | 3.64 | NC1=N[C@](c2cccc(NC(=O)c3ccc(Cl)cn3)c2)(C(F)(F)F)[C@@H]2C[C@@H]2O1 (racemic) [Example 208, N-(3-([1(R,S),5(S,R),6(R,S)]-3-amino-5-(trifluoromethyl)-2-oxa-4-azabicyclo[4.1.0]hept-3-en-5-yl)phenyl)-5-chloropicolinamide]
5.55 | 3.75 | 1.11 | NC1=N[C@@](c2cc(NCc3ccc(Cl)cn3)ccc2F)(C(F)F)[C@H]2C[C@H]2O1 [Example 377, (1R,5S,6R)-5-(5-(((5-chloropyridin-2-yl)methyl)amino)-2-fluorophenyl)-5-(difluoromethyl)-2-oxa-4-azabicyclo[4.1.0]hept-3-en-3-amine]
7.09 | < 3.40 | 0.009 | COc1cc(C#N)cnc1C(=O)Nc1ccc(Cl)c([C@@]2(CF)N=C(N)O[C@@H]3C[C@@H]32)c1 [Example 397, N-(3-((1R,5S,6R)-3-amino-5-(fluoromethyl)-2-oxa-4-azabicyclo[4.1.0]hept-3-en-5-yl)-4-chlorophenyl)-5-cyano-3-methoxypicolinamide]
6.53 | 3.28 | 0.176 | CC#CCOc1cnc(C(=O)Nc2cc(F)c(F)c(C3(CF)N=C(N)O[C@H]4C[C@H]43)c2)cn1 (stereo in doubt) [Example 36, N-(3-((1S,5S,6S)-3-amino-5-(fluoromethyl)-2-oxa-4-azabicyclo[4.1.0]hept-3-en-5-yl)-4,5-difluorophenyl)-5-(but-2-yn-1-yloxy)pyrazine-2-carboxamide]
7.29 | 3.99 | 0.524 | N#Cc1cnc2c(Nc3cc(F)c(F)c([C@@]4(C(F)F)N=C(N)O[C@@H]5C[C@@H]54)c3)ncc(F)c2c1 [Example 367, 8-((3-((1R,5S,6R)-3-amino-5-(difluoromethyl)-2-oxa-4-azabicyclo[4.1.0]hept-3-en-5-yl)-4,5-difluorophenyl)amino)-5-fluoro-1,7-naphthyridine-3-carbonitrile]

The next lines start with the compound.

Structure (SMILES) | pIC50 [1] | pIC50 (Cathepsin D (Cat D)) | IC50 (BACE) [µM]
NC1=N[C@](c2cc(NC(=O)c3ccc(Cl)cn3)ccc2F)(C(F)(F)F)[C@@H]2C[C@@H]2O1 (racemic) [Example 218, N-(3-((1(R,S),5(S,R),6(R,S))-3-amino-5-(trifluoromethyl)-2-oxa-4-azabicyclo[4.1.0]hept-3-en-5-yl)-4-fluorophenyl)-5-chloropicolinamide compound] | 6.06 | < 3.40 | > 15.6
NC1=N[C@@](c2cc(NCC3(c4ccc(Cl)cc4)CC3)ccc2F)(C(F)F)[C@H]2C[C@H]2O1 [Example 370, (1R,5S,6R)-5-(5-(((1-(4-chlorophenyl)cyclopropyl)methyl)amino)-2-fluorophenyl)-5-(difluoromethyl)-2-oxa-4-azabicyclo[4.1.0]hept-3-en-3-amine] | 4.86 | 4.20 | 8.85
NC1=N[C@](c2cc(NC(=O)c3ccc(Cl)cn3)ccc2F)(C(F)F)[C@@H]2C[C@@H]2O1 [Example 60, N-(3-((1S,5R,6S)-3-amino-5-(difluoromethyl)-2-oxa-4-azabicyclo[4.1.0]hept-3-en-5-yl)-4-fluorophenyl)-5-chloropicolinamide] | < 4.40 | < 3.40 | > 15.6
Cc1cc(C(F)F)cnc1C(=O)Nc1ccc(F)c([C@@]2(C(F)F)N=C(N)O[C@@H]3C[C@@H]32)c1 [Example 186, N-(3-((1R,5S,6R)-3-amino-5-(difluoromethyl)-2-oxa-4-azabicyclo[4.1.0]hept-3-en-5-yl)-4-fluorophenyl)-5-(difluoromethyl)-3-methylpicolinamide] | 7.21 | 3.11 | 0.0345
COc1ccc(C(=O)Nc2ccc(F)c([C@@]3(CF)N=C(N)O[C@@H]4C[C@@H]43)c2)nc1 [Example 195, N-(3-((1R,5S,6R)-3-amino-5-(fluoromethyl)-2-oxa-4-azabicyclo[4.1.0]hept-3-en-5-yl)-4-fluorophenyl)-5-methoxypicolinamide] | 6.91 | 3.12 | 0.0156
Cc1cnc(C(=O)Nc2ccc(F)c([C@@]3(C(F)F)N=C(N)O[C@@H]4C[C@@H]43)c2)cn1 [Example 266, N-(3-((1R,5S,6R)-3-amino-5-(difluoromethyl)-2-oxa-4-azabicyclo[4.1.0]hept-3-en-5-yl)-4-fluorophenyl)-5-methylpyrazine-2-carboxamide] | 6.09 | 2.93 | 0.776
CC#CCOc1cnc(C(=O)Nc2ccc(F)c([C@]3(C)N=C(N)O[C@H]4C[C@H]43)c2)c(C)c1 [Example 57, N-(3-((1S,5R,6S)-3-amino-5-methyl-2-oxa-4-azabicyclo[4.1.0]hept-3-en-5-yl)-4-fluorophenyl)-5-(but-2-yn-1-yloxy)-3-methylpicolinamide] | 5.65 | 3.48 | 0.455
COc1cnc(C(=O)Nc2ccc(Cl)c([C@@]3(C(F)F)N=C(N)O[C@@H]4C[C@@H]43)c2)c(C)c1 [Example 101, N-(3-((1R,5S,6R)-3-amino-5-(difluoromethyl)-2-oxa-4-azabicyclo[4.1.0]hept-3-en-5-yl)-4-chlorophenyl)-5-methoxy-3-methylpicolinamide] | 7.01 | 3.59 | 0.0598
NC1=N[C@@](c2cc(NC(=O)C3CC3)ccc2F)(C(F)F)[C@H]2C[C@H]2O1 [Example 260, N-(3-((1R,5S,6R)-3-amino-5-(difluoromethyl)-2-oxa-4-azabicyclo[4.1.0]hept-3-en-5-yl)-4-fluorophenyl) cyclopropanecarboxamide] | 5.29 | 3.98 | 3.19
NC1=N[C@@](c2cc(NC(=O)c3csc(Cl)c3)ccc2F)(C(F)F)[C@H]2C[C@H]2O1 [Example 181, N-(3-((1R,5S,6R)-3-amino-5-(difluoromethyl)-2-oxa-4-azabicyclo[4.1.0]hept-3-en-5-yl)-4-fluorophenyl)-5-chlorothiophene-3-carboxamide] | 5.85 | 3.24 | 1.14
NC1=N[C@@](c2cc(NC(=O)[C@H]3CCCO3)ccc2F)(C(F)F)[C@H]2C[C@H]2O1 (mixture of isomers) [Example 244, (S,R)-N-(3-((1R,5S,6R)-3-amino-5-(difluoromethyl)-2-oxa-4-azabicyclo[4.1.0]hept-3-en-5-yl)-4-fluorophenyl) tetrahydrofuran-2-carboxamide] | 5.27 | 3.50 | 1.98
NC1=N[C@@](c2cc(NC(=O)c3cccc(Cl)n3)ccc2F)(C(F)F)[C@H]2C[C@H]2O1 [Example 286, N-(3-((1R,5S,6R)-3-amino-5-(difluoromethyl)-2-oxa-4-azabicyclo[4.1.0]hept-3-en-5-yl)-4-fluorophenyl)-6-chloropicolinamide] | 5.80 | 3.14 | 1.12
COc1cnc(C(=O)Nc2ccc(Cl)c([C@]3(CF)N=C(N)O[C@H]4C[C@H]43)c2)cn1 [Example 273] | 4.44 | 2.70 | 2.66
